{"source": "PubChem BioAssay (NCI)", "assay_in_all_cases": "growth of human tumour cells (NCI), 48 h", "key": {"NCI-H226 lung": {"tested_on": "NCI-H226 lung"}, "NCI-H23 lung": {"tested_on": "NCI-H23 lung"}, "NCI-H460 lung": {"tested_on": "NCI-H460 lung"}, "NCI-H522 lung": {"tested_on": "NCI-H522 lung"}, "NCI/ADR-RES ovarian": {"tested_on": "NCI/ADR-RES ovarian"}, "OVCAR-3 ovarian": {"tested_on": "OVCAR-3 ovarian"}, "OVCAR-4 ovarian": {"tested_on": "OVCAR-4 ovarian"}, "OVCAR-5 ovarian": {"tested_on": "OVCAR-5 ovarian"}, "OVCAR-8 ovarian": {"tested_on": "OVCAR-8 ovarian"}, "PC-3 prostate": {"tested_on": "PC-3 prostate"}, "RPMI-8226 leukemia": {"tested_on": "RPMI-8226 leukemia"}, "RXF 393 renal": {"tested_on": "RXF 393 renal"}, "SF-268 CNS": {"tested_on": "SF-268 CNS"}, "SF-295 CNS": {"tested_on": "SF-295 CNS"}, "SF-539 CNS": {"tested_on": "SF-539 CNS"}, "SK-MEL-2 melanoma": {"tested_on": "SK-MEL-2 melanoma"}, "SK-MEL-28 melanoma": {"tested_on": "SK-MEL-28 melanoma"}, "SK-MEL-5 melanoma": {"tested_on": "SK-MEL-5 melanoma"}, "SK-OV-3 ovarian": {"tested_on": "SK-OV-3 ovarian"}, "SN12C renal": {"tested_on": "SN12C renal"}, "SNB-19 CNS": {"tested_on": "SNB-19 CNS"}, "SNB-75 CNS": {"tested_on": "SNB-75 CNS"}, "SW-620 colon": {"tested_on": "SW-620 colon"}, "T-47D breast": {"tested_on": "T-47D breast"}, "TK-10 renal": {"tested_on": "TK-10 renal"}, "U251 CNS": {"tested_on": "U251 CNS"}, "UACC-257 melanoma": {"tested_on": "UACC-257 melanoma"}, "UACC-62 melanoma": {"tested_on": "UACC-62 melanoma"}, "UO-31 renal": {"tested_on": "UO-31 renal"}}, "note": "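48-hour exposure; five concentrations; linearly interpolated endpoints. GI50 is the concentration that inhibits growth by half. TGI marks complete inhibition of growth.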", "data": [{"compound": "CN(C)CCOc1ccc(C(=O)C2[C@H](c3ccc(Cl)cc3)[C@@H](c3ccccc3)NC23C(=O)Nc2ccc(Br)cc23)cc1", "note": "(stereo partly drawn)", "values": [{"measurement": "GI50", "setting": "NCI-H226 lung", "result": 2.65, "unit": "µM"}, {"measurement": "TGI", "setting": "NCI-H226 lung", "result": 5.6, "unit": "µM"}, {"measurement": "GI50", "setting": "NCI-H23 lung", "result": 2.62, "unit": "µM"}, {"measurement": "TGI", "setting": "NCI-H23 lung", "result": 5.03, "unit": "µM"}, {"measurement": "GI50", "setting": "NCI-H460 lung", "result": 2.71, "unit": "µM"}, {"measurement": "TGI", "setting": "NCI-H460 lung", "result": 5.22, "unit": "µM"}, {"measurement": "GI50", "setting": "NCI-H522 lung", "result": 2.87, "unit": "µM"}, {"measurement": "TGI", "setting": "NCI-H522 lung", "result": 5.56, "unit": "µM"}, {"measurement": "GI50", "setting": "NCI/ADR-RES ovarian", "result": 2.68, "unit": "µM"}, {"measurement": "TGI", "setting": "NCI/ADR-RES ovarian", "result": 5.07, "unit": "µM"}, {"measurement": "GI50", "setting": "OVCAR-3 ovarian", "result": 2.24, "unit": "µM"}, {"measurement": "TGI", "setting": "OVCAR-3 ovarian", "result": 4.57, "unit": "µM"}, {"measurement": "GI50", "setting": "OVCAR-4 ovarian", "result": 2.47, "unit": "µM"}, {"measurement": "TGI", "setting": "OVCAR-4 ovarian", "result": 4.91, "unit": "µM"}, {"measurement": "GI50", "setting": "OVCAR-5 ovarian", "result": 2.23, "unit": "µM"}, {"measurement": "TGI", "setting": "OVCAR-5 ovarian", "result": 4.34, "unit": "µM"}, {"measurement": "GI50", "setting": "OVCAR-8 ovarian", "result": 2.58, "unit": "µM"}, {"measurement": "TGI", "setting": "OVCAR-8 ovarian", "result": 5.01, "unit": "µM"}, {"measurement": "GI50", "setting": "PC-3 prostate", "result": 2.48, "unit": "µM"}, {"measurement": "TGI", "setting": "PC-3 prostate", "result": 4.94, "unit": "µM"}, {"measurement": "GI50", "setting": "RPMI-8226 leukemia", "result": 3.33, "unit": "µM"}, {"measurement": "TGI", "setting": "RPMI-8226 leukemia", "result": 8.37, "unit": "µM"}, {"measurement": "GI50", "setting": "RXF 393 renal", "result": 1.65, "unit": "µM"}, {"measurement": "TGI", "setting": "RXF 393 renal", "result": 3.61, "unit": "µM"}, {"measurement": "GI50", "setting": "SF-268 CNS", "result": 2.47, "unit": "µM"}, {"measurement": "TGI", "setting": "SF-268 CNS", "result": 5.46, "unit": "µM"}, {"measurement": "GI50", "setting": "SF-295 CNS", "result": 2.48, "unit": "µM"}, {"measurement": "TGI", "setting": "SF-295 CNS", "result": 4.68, "unit": "µM"}, {"measurement": "GI50", "setting": "SF-539 CNS", "result": 2.64, "unit": "µM"}, {"measurement": "TGI", "setting": "SF-539 CNS", "result": 4.89, "unit": "µM"}, {"measurement": "GI50", "setting": "SK-MEL-2 melanoma", "result": 2.68, "unit": "µM"}, {"measurement": "TGI", "setting": "SK-MEL-2 melanoma", "result": 5.16, "unit": "µM"}, {"measurement": "GI50", "setting": "SK-MEL-28 melanoma", "result": 2.65, "unit": "µM"}, {"measurement": "TGI", "setting": "SK-MEL-28 melanoma", "result": 4.88, "unit": "µM"}, {"measurement": "GI50", "setting": "SK-MEL-5 melanoma", "result": 2.52, "unit": "µM"}, {"measurement": "TGI", "setting": "SK-MEL-5 melanoma", "result": 4.71, "unit": "µM"}, {"measurement": "GI50", "setting": "SK-OV-3 ovarian", "result": 4.39, "unit": "µM"}, {"measurement": "TGI", "setting": "SK-OV-3 ovarian", "result": 16.3, "unit": "µM"}, {"measurement": "GI50", "setting": "SN12C renal", "result": 2.35, "unit": "µM"}, {"measurement": "TGI", "setting": "SN12C renal", "result": 4.55, "unit": "µM"}, {"measurement": "GI50", "setting": "SNB-19 CNS", "result": 2.63, "unit": "µM"}, {"measurement": "TGI", "setting": "SNB-19 CNS", "result": 4.94, "unit": "µM"}, {"measurement": "GI50", "setting": "SNB-75 CNS", "result": 1.7, "unit": "µM"}, {"measurement": "TGI", "setting": "SNB-75 CNS", "result": 5.81, "unit": "µM"}, {"measurement": "GI50", "setting": "SW-620 colon", "result": 2.63, "unit": "µM"}, {"measurement": "TGI", "setting": "SW-620 colon", "result": 5.17, "unit": "µM"}, {"measurement": "GI50", "setting": "T-47D breast", "result": 2.33, "unit": "µM"}, {"measurement": "TGI", "setting": "T-47D breast", "result": 5.18, "unit": "µM"}, {"measurement": "GI50", "setting": "TK-10 renal", "result": 2.67, "unit": "µM"}, {"measurement": "TGI", "setting": "TK-10 renal", "result": 5.61, "unit": "µM"}, {"measurement": "GI50", "setting": "U251 CNS", "result": 2.59, "unit": "µM"}, {"measurement": "TGI", "setting": "U251 CNS", "result": 4.96, "unit": "µM"}, {"measurement": "GI50", "setting": "UACC-257 melanoma", "result": 2.53, "unit": "µM"}, {"measurement": "TGI", "setting": "UACC-257 melanoma", "result": 4.94, "unit": "µM"}, {"measurement": "GI50", "setting": "UACC-62 melanoma", "result": 2.5, "unit": "µM"}, {"measurement": "TGI", "setting": "UACC-62 melanoma", "result": 4.74, "unit": "µM"}, {"measurement": "GI50", "setting": "UO-31 renal", "result": 2.3, "unit": "µM"}, {"measurement": "TGI", "setting": "UO-31 renal", "result": 4.63, "unit": "µM"}]}]}
